# Assay results as given in patent US20070014739A1, “Compositions and methods for controlling biofilms and bacterial infections” (priority 2005, published 2007).
# “And” between values parts separate entries of the source, which are not always exact repeats. Equal values may be shown once.
# What was measured:
# [1] = test system: Pseudomonas aeruginosa PA01; experiment: Inhibition of biofilm formation and growth, 96-well plates, crystal violet; type: cell-based; details: for inhibited biofilm formation of P. aeruginosa PAO1: approximately 10 ug/ml, compared to the controls; for inhibitory effect on the growth of P. aeruginosa PA01: compared to controls
# Method: An overnight culture of P. aeruginosa PA01 in LB+1% citrate was prepared. It was incubated at 37° C. shaker for 24 hours. A 1:20 dilution of the overnight culture was prepared. Test compounds are diluted appropriately with a volume of ethanol followed by shaking for approximately 5 minutes and then diluted with an appropriate volume of water.
# Replicate 96-well plates are prepared, preferably two to four replicates, with appropriately diluted overnight culture and test compound in each well. Preferably, test compounds are prepared at 10 to 30 micrograms per milliliter. On each 96-well plate controls are appropriately prepared with at least one set of controls consisting of overnight culture and ethanol/water diluent and another set of controls consisting of growth media and ethanol/water diluent. Plates are covered with foil at room temperature and shaken for approximately 24 hours.
# After shaking absorbance of the wells of the plates are determined, preferably at 630 nanometers. Liquid is than aspirated out of the wells and each well is filled with diluted crystal violet, preferably approximately 250 microliters of a 1:4 dilution, and allowed to stand for approximately 10 minutes. Each well of the plate is washed, preferably four times, with PBS with approximately one minute between each wash. After the final wash is aspirated out, the plate may be turned over onto paper towels to dump out excess PBS. 95% ethanol is added to each well, preferably 250 microliters. Absorbance of each well of a plate is determined, preferably at 540 nm. Preferably slight shaking is performed during the absorbance reading for approximately 5 minutes. Each well of the plate is than diluted […] with ethanol in a separate plate, preferably 145 ul of 95% ethanol and 5 uL from the original plate, and absorbance is determined. Preferably, slight shaking for approximately 3 minutes is performed.
# Biofilm inhibition in each well is determined by subtracting the absorbance of the wells with test compounds from wells with controls containing overnight culture subtracting out controls with only media. A typical positive result of biofilm inhibition confirmed with replicates would be 30 percent to 80 percent less biofilm in the wells with test compound compared to the wells with controls of overnight culture.
# [2] = test system: E. coli clinical strain UT189; experiment: Inhibition of biofilm formation, crystal violet, 96 well plates; type: cell-based; details: Escherichia coli; 20 ug/ml; read-out: inhibited biofilm formation of the UT189 strain
# Method: Biofilm inhibition experiments were conducted using an assay adapted from the reported protocol described in Pratt and Kolter, 1998, Molecular Microbiology, 30: 285-293; Li et al., 2001, J. Bacteriol., 183: 897-908. E. coli clinical strain UT189 was grown in LB in 96 well plates at room temperature for one or two days without shaking. E. coli laboratory strain JM109 was grown in LB plus 0.2% glucose in 96 well plates at room temperature for one day without shaking. To quantify the biofilm mass, the suspension culture was poured out and the biofilm was washed three times with water. The biofilm was stained with 0.1% crystal violet for 20 minutes. The plates were then washed three times with water. OD reading at 540 nm was measured to quantify the biofilm mass at the bottom of the wells. Then 95% ethanol was added to dissolve the dye at the bottom and on the wall and the OD reading at 540 nm was measured to quantify the total biofilm mass. To study the overall effect of the compounds (3.6 mg/mL in 100% ethanol as stock solution), it was added with the inoculation and a time course of biofilm mass was measured. Appropriate amounts of 100% ethanol were added to each sample to eliminate the effect of solvent. Each condition had 3-4 replicates on each plate and was performed over multiple days.
# E. coli UT189[pCOMGFP] = experiment: Biofilm pods (IBCs) in bladders of infected mice, intravesical compound, confocal microscopy; type: in vivo, Escherichia coli; details: vs controls
# Method: The procedures in this example has been previously reported by Justice, S. et al. Differentiation and development pathways of uropathogenic Escherichia coli in urinary tract pathogenesis. PNAS, 2004, 101(5), p. 1333-1338. Briefly, E. coli UT189[pCOMGFP] was prepared after retrieval from frozen stocks by inoculating appropriately in LB medium statically for approximately 20 hours. Cells were harvested and suspended in 1 ml of PBS. Cells were diluted appropriately to achieve approximately a 10^8 CFU or 10^7 CFU input into C3H/HeN mice (2 mice per group).
# Mice were deprived of water for approximately two hours. In experiment 1, all mice were anesthetized with 0.15 cc ketamine cocktail. In experiment 2, all mice were anesthetized with isofluorane. In experiment 1, urine was dispelled from the bladders and approximately 40 μg/ml of test compound or an appropriate amount of ethanol as control was introduced into the bladders via catheterization of the urethra using a tubing coated tuberculin syringe. 30 minutes was allowed to elapse. In experiment 2, bladders were not pre-incubated with test compounds. Bladders were then expelled and an inoculum of 10^8 CFU (Experiment 1) or 10^7 CFU (Experiment 2) of E. coli containing 40 μg/ml of test compound or equivalent amount of ethanol as controls were introduced into the bladders as indicated above.
# In experiment 1 five hours elapsed and in experiment 2 six hours elapsed, and then mice were anesthetized and sacrificed appropriately. The bladders were removed, bisected, stretched, and fixed in 3% paraformaldehyde for 1 hour at room temperature. Bladders were then permeabilized in 0.01% Triton/PBS for 10 minutes and counter stained with TOPRO3 (Molecular Probes) for 10 minutes for visualization by confocal microscopy. Bladders were mounted on Prolong antifade (Molecular Probes).
# [3] = test system: P. aeruginosa strain PAO1; experiment: Rotating disk reactor (RDR) biofilm test with and without tobramycin, culturable bacteria; type: cell-based, Pseudomonas aeruginosa
# Method: Biofilm formation of P. aeruginosa was evaluated using a standardized biofilm method with a rotating disk reactor (RDR). This method provides a model resembling the formation of biofilms in cystic fibrosis patients. The rotating disk reactor consists of a one-liter glass beaker fitted with a drain spout. The bottom of the vessel contains a magnetically driven rotor with six 1.27 cm diameter coupons constructed from polystyrene. The rotor consists of a star-head magnetic stir bar upon which a disk was affixed to hold the coupons. The vessel with the stir bar was placed on a stir plate and rotated to provide fluid shear. A nutrient solution (AB Trace Medium with 0.3 mM glucose, see Table 3 below for composition) was added through a stopper in the top of the reactor at a flow rate of 5 ml/min. The reactor volume was approximately 180 ml and varied slightly between reactors depending on the placement of the drain spout and the rotational speed of the rotor. At a volume of 180 ml, the residence time of the reactors was 36 minutes. The reactors were operated at room temperature (c.a. 26° C.).
# For each test, two RDRs were operated in parallel with one receiving test compound and the other serving as an untreated control. The RDRs were sterilized by autoclave, then filled with sterile medium and inoculated with P. aeruginosa strain PAO1. The reactors were then incubated at room temperature in batch mode (no medium flow) for a period of 24 hours, after which the flow was initiated for a further 24 hour incubation. Test compounds were dissolved in 10 ml ethanol to achieve a concentration of 1.8 mg/ml. After the 48 hours of biofilm development described above, the 10 ml of ethanol containing the test compounds were added to the reactor to achieve a final concentration of approximately 50, 100, or 200 μg/ml. Control reactors received 10 ml of ethanol. The reactors were then incubated for an additional 24 hours in batch (no flow) mode. After this incubation period, the six coupons were removed from each reactor and placed in 12-well polystyrene tissue culture plates with wells containing either 2 ml of a 100 μg/ml tobramycin solution or 2 ml of phosphate-buffered saline (PBS). These plates were incubated at room temperature for two hours. The coupons were then rinsed by three transfers to plates containing 2 ml of fresh PBS. For each two RDR reactors run in parallel, four sets of three coupons were obtained: one set with no test compound treatment and no tobramycin treatment, one set with no test compound treatment and tobramycin treatment, one set treated with a test compound treatment and no tobramycin treatment, and one set treated with a test compound treatment and tobramycin. After rinsing, one coupon of each set of three was stained with a LIVE/DEAD® BacLight™ Bacterial Viability Kit (Molecular Probes, Eugene Oreg.) and imaged using epifluorescent microscopy. The remaining two coupons were placed in 10 ml of PBS and sonicated for five minutes to remove and disperse biofilm cells. The resulting bacterial suspensions were then serially diluted in PBS and plated on tryptic soy agar plates for enumeration of culturable bacteria. The plates were incubated for 24 hours at 37° C. before colony forming units (CFU) were determined.
# The results are averages from experiments performed on three separate days for each test compound. The values reported are as loglo CFU.
# [4] = test system: E. coli clinical strain UT189 against bladder epithelial cells; experiment: Binding to and invasion of bladder epithelial cells by E. coli; type: cell-based
# Method: The effect of test compounds on bacterial invasion of E. coli clinical strain UT189 was studied as described in Elsinghorst, et al. 1994, Methods Enzymol, 236:405-420; and Martinez et al., 2000, EMBO J., 19:2803-2812. Epithelial bladder cells were grown in plates. Asiatic acid, corosolic acid, or ursolic acid were added at concentrations of 10 μg/ml, 20 μg/ml, or 40 μg/ml to bacteria and epithelial cells for approximately 5, 15, 30, or 60 minutes with approximately 10^7 CFU of E. coli. Binding was assessed at time zero and invasion was assessed at approximately 5, 15, 30, or 60 minutes from completing the mixture of compound, bacteria, and epithelial cells. As a control ethanol was added to cells to a final concentration of 0.1%. The effect of bacterial viability and bacterial adherence during the infection period was evaluated according to the methods described in Martinez et al., 2000, EMBO J., 19:2803-2812.
# [5] = test system: methicillin-resistant Staphylococcus aureus; details: cited from earlier work
compound,measurement,setting,value
"3-hydroxy-12,20(30) ursadienoic acid [3-hydroxy-12, 20(30) ursadienoic acid]",inhibited biofilm formation of P. aeruginosa PAO1,[1],about 40%
same,inhibitory effect on the growth of P. aeruginosa PA01,[1],no inhibitory effect
CC(=O)OC1CCC2(C)C(CCC3(C)C2CC=C2[C@@H]4CC(C)(C)CCC4(C(=O)O)CCC23C)C1(C)C (some centres unmarked) [3-acetyl oleanolic acid],inhibited biofilm formation of P. aeruginosa PAO1,[1],~50%
same,inhibitory effect on the growth of P. aeruginosa PA01,[1],no inhibitory effect
C[C@@H]1CC[C@]2(C(=O)O)CCC3(C)C(=CCC4C5(C)C[C@@H](O)[C@H](O)C(C)(C)C5CCC43C)C2[C@H]1C (some centres unmarked) [Corosolic acid],inhibition at 20 µg/mL,[2],~85%
same,reduction in biofilm pods or IBCs in the bladders of mice,"E. coli UT189[pCOMGFP]; experiment 1: C3H/HeN mice, 40 μg/ml intravesical with 30 min pre-incubation, 10^8 CFU, five hours",94%
same,reduction in large biofilm pods or large IBCs in the bladders of mice,"E. coli UT189[pCOMGFP]; experiment 2: C3H/HeN mice, 40 μg/ml in inoculum, no pre-incubation, 10^7 CFU, six hours",~60%
same,"CFU, Test Compound","[3]; test compound 100 μg/ml 24 h, no tobramycin, average of three days",7.8 loglo CFU
same,"CFU, Tobramycin and Test Compound","[3]; test compound 100 μg/ml 24 h, then tobramycin 100 μg/ml 2 h, average of three days",5.3 loglo CFU
same,reduced invasion of E. coli into bladder epithelial cells,"[4]; 20 μg/ml, 60 minutes, n=4",65%
same,reduced invasion of E. coli into bladder epithelial cells,"[4]; 40 µg/ml, 5 minutes, triplicate, compared to the controls",10%
same,reduced invasion of E. coli into bladder epithelial cells,"[4]; 40 µg/ml, 15 minutes, triplicate, compared to the controls",70%
same,reduced invasion of E. coli into bladder epithelial cells,"[4]; 40 μg/ml, 60 minutes, separate experiments (n=4 to 7)",90%
same,reduced invasion of E. coli into bladder epithelial cells,"[4]; 40 µg/ml, 60 minutes, triplicate, compared to the controls",90%
"C[C@@H]1CC[C@]2(C(=O)O)CC[C@]3(C)C(=CCC4[C@@]5(C)C[C@@H](O)[C@@H](O)C(C)(C)C5CC[C@]43C)C2[C@H]1C (some centres unmarked) [Pygenic acid A, Pygenic Acid A]",inhibited biofilm formation of P. aeruginosa PAO1,[1],about 40%
same,inhibitory effect on the growth of P. aeruginosa PA01,[1],no inhibitory effect
"C=C1CCC2(C(=O)O)CCC3(C)C(=CCC4C5(C)CCC(O)C(C)(C)C5CCC43C)C2C1C (centres unmarked) [Pygenic acid B, Pygenic Acid B]",inhibited biofilm formation of P. aeruginosa PAO1,[1],~30%
same,inhibitory effect on the growth of P. aeruginosa PA01,[1],no inhibitory effect
"NC[C@H]1O[C@H](O[C@H]2[C@H](O)[C@@H](O[C@H]3O[C@H](CO)[C@@H](O)[C@H](N)[C@H]3O)[C@H](N)C[C@@H]2N)[C@H](N)C[C@@H]1O [Tobramycin, reference compound]","CFU, Tobramycin","[3]; tobramycin 100 μg/ml 2 h, no test compound, parallel reactor of the experiment",5.8 loglo CFU and 6.5 loglo CFU and 6.1 loglo CFU and 6.7 loglo CFU and 6.2 loglo CFU
CO[C@H]1/C=C/O[C@@]2(C)Oc3c(C)c(O)c4c(O)c(c(/C=N/N5CCN(C)CC5)c(O)c4c3C2=O)NC(=O)/C(C)=C\C=C\[C@H](C)[C@H](O)[C@@H](C)[C@@H](O)[C@@H](C)[C@H](OC(C)=O)[C@@H]1C [rifampin],eradication of methicillin-resistant Staphylococcus aureus in a biofilm,"[5]; biofilm, urinary catheters",unable to eradicate
same,"effect against planktonic, or suspended cells",[5]; planktonic cells,effective
Echinocystic Acid,inhibited biofilm formation of P. aeruginosa PAO1,[1],~25%
same,inhibitory effect on the growth of P. aeruginosa PA01,[1],no inhibitory effect
